For assay [1], the system named is methicillin-sensitive Staphylococcus aureus. The assay is described as follows: MIC by broth micro-dilution (CLSI), methicillin-sensitive S. aureus. Type of assay: cell-based. As to conditions: Staphylococcus aureus, ATCC 29213 / MSSA, MSSA S. aureus ATCC29213; read-out: MIC.
Assay [2] concerns carbapenem sensitive Escherichia coli. The assay is described as follows: MIC by broth micro-dilution (CLSI), carbapenem sensitive E. coli. Format: cell-based. Particulars: Escherichia coli, ATCC25922, ESBL −ve E. coli ATCC25922; read-out: MIC.
For assay [3], the system named is extended spectrum β lactamase (ESBL) SHV18 producing Klebsiella pneumoniae. In words: MIC by broth micro-dilution (CLSI), ESBL SHV18 producing K. pneumoniae. Type of assay: cell-based. Particulars: Klebsiella pneumoniae, ATCC700603, 22 h, ESBL +ve (SHV-18) K. pneumoniae ATCC700603; read-out: MIC.
In assay [4] the test system is carbapenem sensitive Pseudomonas aeruginosa. The assay is described as follows: MIC by broth micro-dilution (CLSI), carbapenem sensitive P. aeruginosa. Type of assay: cell-based. As to conditions: Pseudomonas aeruginosa, ATCC27853, Meropenem susceptible P. aeruginosa ATCC27853; read-out: MIC.
For assay [5], the system named is carbapenemase producing K. pneumoniae. The assay is described as follows: MIC by broth micro-dilution (CLSI), carbapenemase producing K. pneumoniae. Type of assay: cell-based, Klebsiella pneumoniae. As to conditions: Klebsiella pneumoniae, ATCCBAA1705, KPC-2 K. pneumoniae ATCC BAA-1705; read-out: MIC.

Structures are written as SMILES. Values after ≈ are worked out from the molar mass of the structure shown.

In the case of `C[C@@H](Oc1ccon1)[C@H]1C(=O)N2C(C(=O)O)=C(S[C@@H]3CN[C@H](C(=O)N(C)C)C3)[C@H](C)[C@H]12` [Example 187], the MIC is 4 µg/mL (≈ 8.88 µM) in assay [1]; 2 µg/mL (≈ 4.44 µM) in assay [2]; 8 µg/mL (≈ 17.8 µM) in assay [3]; 128 µg/mL (≈ 284 µM) in assay [4]; 64 µg/mL (≈ 142 µM) in assay [5].
On the same counts, the results for `CNCC(=O)N[C@H](C)[C@H]1C(=O)N2C(C(=O)O)=C(S[C@@H]3CN[C@H](C(=O)N4CC(N)C4)C3)[C@H](C)[C@H]12` [Example 189] are over 128 µg/mL, 4 µg/mL (≈ 8.32 µM), 32 µg/mL (≈ 66.6 µM), 16 µg/mL (≈ 33.3 µM) and 8 µg/mL (≈ 16.6 µM).
For the compound `CNCC(=O)N[C@H](C)[C@H]1C(=O)N2C(C(=O)O)=C(S[C@@H]3CN[C@H](C(=O)N4CCC(N)CC4)C3)[C@H](C)[C@H]12` [Example 190], the minimal inhibitory concentration (MIC) in assay [1] amounted to 64 µg/mL (≈ 126 µM); in assay [2], 2 µg/mL (≈ 3.93 µM); in assay [3], 16 µg/mL (≈ 31.5 µM); in assay [4] it was 4 µg/mL (≈ 7.86 µM); in assay [5], 4 µg/mL (≈ 7.86 µM).
As for `CNCC(=O)N[C@H](C)[C@H]1C(=O)N2C(C(=O)O)=C(S[C@@H]3CN[C@H](C(=O)N4C[C@@H](N)C[C@H]4CN)C3)[C@H](C)[C@H]12` [Example 191], the MIC turned out to be 64 µg/mL (≈ 122 µM) in assay [1]; 8 µg/mL (≈ 15.3 µM) in assay [2]; 32 µg/mL (≈ 61.1 µM) in assay [3]; 32 µg/mL (≈ 61.1 µM) in assay [4]; 8 µg/mL (≈ 15.3 µM) in assay [5].
`CNCC(=O)N[C@H](C)[C@H]1C(=O)N2C(C(=O)O)=C(S[C@@H]3CN[C@H](C(=O)N4CC[C@@H](O)C4)C3)[C@H](C)[C@H]12` [Example 192]: the MIC came to 64 µg/mL (≈ 129 µM) in assay [1]; 1 µg/mL (≈ 2.02 µM) in assay [2]; 2 µg/mL (≈ 4.04 µM) in assay [3]; 4 µg/mL (≈ 8.07 µM) in assay [4]; 2 µg/mL (≈ 4.04 µM) in assay [5].
With `CNCC(=O)N[C@H](C)[C@H]1C(=O)N2C(C(=O)O)=C(S[C@@H]3CN[C@H](C(=O)N4CCC(NC(=O)CN)CC4)C3)[C@H](C)[C@H]12` [Example 193], the minimal inhibitory concentration (MIC) in assay [1] turned out to be 64 µg/mL (≈ 113 µM); in assay [2], 4 µg/mL (≈ 7.07 µM); in assay [3], 8 µg/mL (≈ 14.1 µM); in assay [4] it was 8 µg/mL (≈ 14.1 µM); in assay [5], 4 µg/mL (≈ 7.07 µM).
`C[C@@H](NC(=O)C(F)F)[C@H]1C(=O)N2C(C(=O)O)=C(S[C@@H]3CN[C@H](C(=O)N4C[C@H](N)[C@@H](N)C4)C3)[C@H](C)[C@H]12` [Example 194]: the MIC in assay [1] amounted to 8 µg/mL (≈ 15.5 µM); in assay [2], 2 µg/mL (≈ 3.87 µM); in assay [3] it was 8 µg/mL (≈ 15.5 µM); in assay [4] it was 16 µg/mL (≈ 31 µM); in assay [5], 16 µg/mL (≈ 31 µM).
In the case of `C[C@@H](NC(=O)C(F)F)[C@H]1C(=O)N2C(C(=O)O)=C(S[C@@H]3CN[C@H](C(=O)N4CC[C@H](NC(=N)N)C4)C3)[C@H](C)[C@H]12` [Example 195], the minimal inhibitory concentration (MIC) in assay [1] came out at 2 µg/mL (≈ 3.68 µM); in assay [2], 0.5 µg/mL (≈ 0.92 µM); in assay [3], 1 µg/mL (≈ 1.84 µM); in assay [4], 8 µg/mL (≈ 14.7 µM); in assay [5] it was 4 µg/mL (≈ 7.36 µM).
The like results for `C[C@@H](NC(=O)C(F)F)[C@H]1C(=O)N2C(C(=O)O)=C(S[C@@H]3CN[C@H](C(=O)N4CC[C@H](NC(=O)CNC(=N)N)C4)C3)[C@H](C)[C@H]12` [Example 196] were, in that order, 2 µg/mL (≈ 3.33 µM), 1 µg/mL (≈ 1.66 µM), 4 µg/mL (≈ 6.66 µM), 32 µg/mL (≈ 53.3 µM) and 8 µg/mL (≈ 13.3 µM).
On the same counts, the results for `C[C@@H](NC(=O)CNC1CC1)[C@H]1C(=O)N2C(C(=O)O)=C(S[C@@H]3CN[C@H](C(=O)N4CC[C@@H](N)C4)C3)[C@H](C)[C@H]12` [Example 197] are 16 µg/mL (≈ 30.7 µM), 4 µg/mL (≈ 7.68 µM), 16 µg/mL (≈ 30.7 µM), 32 µg/mL (≈ 61.5 µM) and 16 µg/mL (≈ 30.7 µM).
The like results for `C[C@@H](NC(=O)C(F)F)[C@H]1C(=O)N2C(C(=O)O)=C(S[C@@H]3CN[C@H](C(=O)N4C[C@H](O)[C@@H](O)C4)C3)[C@H](C)[C@H]12` [Example 198] were, in that order, 2 µg/mL (≈ 3.86 µM), 0.25 µg/mL (≈ 0.482 µM), 1 µg/mL (≈ 1.93 µM), 32 µg/mL (≈ 61.7 µM) and 4 µg/mL (≈ 7.71 µM).
